Experimental data: the NIST ThermoML archive (doi:10.1021/je900276q)
Values joined by “and” are separate entries in the source; they are usually repeats but may differ in a detail not shown here. Equal values may be shown once.

Conditions: Crystal, Calculated from knudsen effusion weight loss

[Cl][Ga]([Cl])[Cl] [gallium chloride]
Conditions | vapor or sublimation pressure
289 K | 0.004266 kPa
290.5 K | 0.005754 kPa
292 K | 0.006166 kPa
293 K | 0.006761 kPa and 0.006918 kPa
293.5 K | 0.007413 kPa
294 K | 0.007943 kPa
295.5 K | 0.00912 kPa
296 K | 0.008913 kPa
297 K | 0.01148 kPa and 0.01072 kPa and 0.01047 kPa
298 K | 0.01175 kPa
298.5 K | 0.01175 kPa
299 K | 0.01318 kPa
299.5 K | 0.01349 kPa
300.5 K | 0.01413 kPa and 0.0138 kPa
301 K | 0.0166 kPa
302 K | 0.01698 kPa
303 K | 0.01905 kPa and 0.0182 kPa
303.5 K | 0.02089 kPa
304.5 K | 0.02042 kPa
305 K | 0.02344 kPa and 0.02089 kPa
306 K | 0.02512 kPa and 0.02754 kPa
307 K | 0.02884 kPa and 0.0263 kPa
308 K | 0.0309 kPa and 0.02951 kPa and 0.02818 kPa

[F][Ga]([F])[F] [gallium fluoride (GaF3)]
Conditions | vapor or sublimation pressure
808 K | 4.677e-05 kPa
810 K | 3.981e-05 kPa
813 K | 4.677e-05 kPa
816 K | 4.677e-05 kPa
818 K | 6.31e-05 kPa
820 K | 5.495e-05 kPa
822 K | 6.31e-05 kPa
827 K | 9.55e-05 kPa and 7.943e-05 kPa
830 K | 9.55e-05 kPa
835 K | 0.0001096 kPa
836 K | 0.0001413 kPa
837 K | 0.0001096 kPa
839 K | 0.0001259 kPa
842 K | 0.0002239 kPa
843 K | 0.0001413 kPa
844 K | 0.000257 kPa
845 K | 0.0001905 kPa and 0.0002818 kPa
846 K | 0.000166 kPa
847 K | 0.0001738 kPa and 0.000257 kPa
852 K | 0.0002692 kPa
853 K | 0.0002188 kPa and 0.0003715 kPa
854 K | 0.0004074 kPa
855 K | 0.0002344 kPa and 0.0004677 kPa
856 K | 0.0002512 kPa
857 K | 0.0003715 kPa
859 K | 0.0006026 kPa
861 K | 0.0003802 kPa
862 K | 0.0003162 kPa
863 K | 0.0005888 kPa and 0.0005495 kPa
864 K | 0.0003311 kPa
866 K | 0.0005495 kPa
867 K | 0.0003802 kPa
869 K | 0.0005248 kPa
870 K | 0.0008913 kPa
871 K | 0.0004365 kPa and 0.0008128 kPa
872 K | 0.0004571 kPa and 0.0008128 kPa
874 K | 0.0007413 kPa
876 K | 0.000537 kPa
878 K | 0.0007586 kPa
880 K | 0.0006166 kPa and 0.001096 kPa
881 K | 0.001349 kPa
882 K | 0.0006457 kPa
884 K | 0.0009772 kPa and 0.001259 kPa
885 K | 0.0007943 kPa and 0.001175 kPa
890 K | 0.0008511 kPa and 0.000871 kPa and 0.001585 kPa
893 K | 0.001413 kPa and 0.002089 kPa
894 K | 0.001202 kPa and 0.001862 kPa and 0.001622 kPa
895 K | 0.001096 kPa
898 K | 0.002138 kPa
900 K | 0.001349 kPa
901 K | 0.001862 kPa and 0.002042 kPa
902 K | 0.002399 kPa
903 K | 0.00166 kPa and 0.002884 kPa
904 K | 0.001622 kPa
907 K | 0.002818 kPa
909 K | 0.002455 kPa and 0.001778 kPa
910 K | 0.00389 kPa and 0.002818 kPa
911 K | 0.002138 kPa
913 K | 0.002188 kPa and 0.003467 kPa
916 K | 0.002455 kPa and 0.003802 kPa
918 K | 0.00309 kPa
919 K | 0.00389 kPa
920 K | 0.00537 kPa
921 K | 0.002884 kPa
923 K | 0.003236 kPa
924 K | 0.005012 kPa
925 K | 0.005248 kPa
928 K | 0.007079 kPa
929 K | 0.005495 kPa
934 K | 0.007413 kPa
935 K | 0.007244 kPa
938 K | 0.00955 kPa
939 K | 0.007413 kPa
942 K | 0.00955 kPa
945 K | 0.01023 kPa
946 K | 0.009333 kPa
947 K | 0.01288 kPa
948 K | 0.01175 kPa
955 K | 0.01445 kPa
956 K | 0.01413 kPa
958 K | 0.01698 kPa and 0.01318 kPa
